Data taken from PubChem BioAssay (NCI).
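Growth conditions: 96-well plates. Treatment: test compound, 48 hours, 5 concentrations. Analysis: linear interpolation between bracketing concentrations; unreached endpoints set to highest concentration. At the GI50, growth is halved. TGI: concentration producing complete growth inhibition.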

Assays:
Test in all cases: NCI tumour cell line growth inhibition, 48 h; in the data active means GI50 below about 0.43 µM; inactive means the rest
[1] = system: NCI/ADR-RES ovarian
[2] = system: MDA-MB-435
[3] = system: SF-539 CNS
[4] = system: NCI-H460 lung
[5] = system: SF-268 CNS
[6] = system: OVCAR-5 ovarian
[7] = system: HCT-15 colon
[8] = system: SK-MEL-5 melanoma
[9] = system: NCI-H226 lung
[10] = system: HOP-62 NSCLC
[11] = system: OVCAR-3 ovarian
[12] = system: MOLT-4 leukemia
[13] = system: ACHN renal
[14] = system: SF-295 CNS
[15] = system: UACC-257 melanoma
[16] = system: MALME-3M melanoma
[17] = system: M14 melanoma
[18] = system: HCC-2998 colon
[19] = system: T-47D breast
[20] = system: IGROV1 ovarian
[21] = system: HCT-116 colon
[22] = system: SR leukemia
[23] = system: DU-145 prostate
[24] = system: OVCAR-4 ovarian
[25] = system: SK-OV-3 ovarian
[26] = system: CCRF-CEM leukemia
[27] = system: BT-549 breast
[28] = system: TK-10 renal
[29] = system: NCI-H23 lung
[30] = system: EKVX NSCLC
[31] = system: A549 NSCLC
[32] = system: UACC-62 melanoma
[33] = system: K-562 leukemia
[34] = system: SK-MEL-2 melanoma
[35] = system: KM12 colon
[36] = system: HS 578T breast
[37] = system: COLO 205 colon
[38] = system: MCF7 breast
[39] = system: HL-60(TB) leukemia
[40] = system: CAKI-1 renal
[41] = system: PC-3 prostate
[42] = system: NCI-H522 lung
[43] = system: LOX IMVI melanoma
[44] = system: SK-MEL-28 melanoma
[45] = system: SNB-19 CNS
[46] = system: UO-31 renal
[47] = system: MDA-MB-231 breast
[48] = system: 786-0 renal
[49] = system: SW-620 colon
[50] = system: RPMI-8226 leukemia
[51] = system: U251 CNS
[52] = system: A498 renal
[53] = system: SNB-75 CNS
[54] = system: SN12C renal
[55] = system: RXF 393 renal
[56] = system: OVCAR-8 ovarian
[57] = system: HOP-92 NSCLC
[58] = system: HT29 colon

COC(=O)c1c(C)c2n(c1C)C(=O)C(c1ccccc1)=C2
> 100 µM: TGI [1] | TGI [2] | TGI [3] | TGI [4] | TGI [5] | TGI [6] | TGI [7] | TGI [8] | TGI [9] | TGI [10] | TGI [11] | TGI [12] | TGI [13] | TGI [14] | TGI [15] | TGI [16] | TGI [17] | TGI [18] | TGI [19] | TGI [20] | TGI [21] | TGI [22] | TGI [23] | TGI [24] | TGI [25] | TGI [26] | TGI [27] | TGI [28] | TGI [29] | TGI [30] | TGI [31] | TGI [32] | TGI [33] | TGI [34] | TGI [35] | TGI [36] | TGI [37] | TGI [38] | TGI [39] | TGI [40] | TGI [41] | TGI [42] | TGI [43] | TGI [44] | TGI [45] | TGI [46] | TGI [47] | TGI [48] | TGI [49] | TGI [50] | TGI [51] | TGI [52] | TGI [53] | TGI [54] | TGI [55] | TGI [56] | TGI [57] | TGI [58]
inactive: GI50 [1] 53.2 µM | GI50 [2] 25.1 µM | GI50 [3] > 88.8 µM | GI50 [4] 58.2 µM | GI50 [5] > 100 µM | GI50 [6] > 91.9 µM | GI50 [7] 28.9 µM | GI50 [8] 26.9 µM | GI50 [9] > 100 µM | GI50 [10] 67.1 µM | GI50 [11] 45.4 µM | GI50 [12] 30.8 µM | GI50 [13] > 87.6 µM | GI50 [14] > 61.9 µM | GI50 [15] > 100 µM | GI50 [16] > 100 µM | GI50 [17] > 71 µM | GI50 [18] > 57.8 µM | GI50 [19] 9.38 µM | GI50 [20] 34.4 µM | GI50 [21] 42.5 µM | GI50 [22] > 50.1 µM | GI50 [23] > 100 µM | GI50 [24] 50.4 µM | GI50 [25] > 73.9 µM | GI50 [26] 51.8 µM | GI50 [27] 61.6 µM | GI50 [28] 48.2 µM | GI50 [29] > 58.3 µM | GI50 [30] 5.91 µM | GI50 [31] > 81.2 µM | GI50 [32] 28.1 µM | GI50 [33] 45.3 µM | GI50 [34] > 100 µM | GI50 [35] 49.7 µM | GI50 [36] 8.13 µM | GI50 [37] > 93 µM | GI50 [38] 5.32 µM | GI50 [39] 53.8 µM | GI50 [40] > 47.9 µM | GI50 [41] > 80.6 µM | GI50 [42] 58.2 µM | GI50 [43] 58.8 µM | GI50 [44] > 87.8 µM | GI50 [45] > 95.6 µM | GI50 [46] 31.7 µM | GI50 [47] 24.3 µM | GI50 [48] 88.1 µM | GI50 [49] 48.6 µM | GI50 [50] 25.9 µM | GI50 [51] 82.8 µM | GI50 [52] > 84.7 µM | GI50 [53] 30.1 µM | GI50 [54] > 100 µM | GI50 [55] 55 µM | GI50 [56] > 90.9 µM | GI50 [57] > 47.1 µM | GI50 [58] 41.1 µM

CCCC(=O)OCC1OC(n2cnc3c(=S)nc(N)[nH]c32)C(OC(=O)CCC)C1OC(=O)CCC (configuration not stated)
inactive: GI50 [1] 5.41 µM | GI50 [2] 3.41 µM | GI50 [3] 2.6 µM | GI50 [4] 3.85 µM | GI50 [5] 4.1 µM | GI50 [6] 3.06 µM | GI50 [7] 7.6 µM | GI50 [8] 6.43 µM | GI50 [9] 5.47 µM | GI50 [10] 2.05 µM | GI50 [11] 2.08 µM | GI50 [12] 3.93 µM | GI50 [13] 4.96 µM | GI50 [14] 0.906 µM | GI50 [15] 8.61 µM | GI50 [16] 1.66 µM | GI50 [17] 1.75 µM | GI50 [18] 2.52 µM | GI50 [19] 3.37 µM | GI50 [20] 5.93 µM | GI50 [21] 2.72 µM | GI50 [22] 1.03 µM | GI50 [23] 2.54 µM | GI50 [24] 2.73 µM | GI50 [25] 1.56 µM | GI50 [26] 2.26 µM | GI50 [27] 2.55 µM | GI50 [28] 1.91 µM | GI50 [29] 4.01 µM | GI50 [30] 5.36 µM | GI50 [31] 25.2 µM | GI50 [32] 2.81 µM | GI50 [33] 3.92 µM | GI50 [34] 3.61 µM | GI50 [35] 3.76 µM | GI50 [36] 12.5 µM | GI50 [37] 4.73 µM | GI50 [38] 2.79 µM | GI50 [39] 5.27 µM | GI50 [40] 2.4 µM | GI50 [41] 3.42 µM | GI50 [42] 2.58 µM | GI50 [43] 0.574 µM | GI50 [44] 23.6 µM | GI50 [45] 27 µM | GI50 [46] 3.99 µM | GI50 [47] 4.42 µM | GI50 [48] 2.92 µM | GI50 [49] 5.68 µM | GI50 [50] 3.97 µM | GI50 [51] 13.3 µM | GI50 [52] 2.98 µM | GI50 [53] 1.26 µM | GI50 [54] 3.81 µM | GI50 [55] 4.89 µM | GI50 [56] 4.72 µM | GI50 [57] 1.4 µM | GI50 [58] 5.63 µM
39.9 µM: TGI [58]
23.6 µM: TGI [18]
12.2 µM: TGI [53]
98 µM: TGI [44]
9.32 µM: TGI [17]
> 47.5 µM: TGI [40]
36.5 µM: TGI [16]
23.4 µM: TGI [38]
14.2 µM: TGI [42]
> 57.6 µM: TGI [39]
14.7 µM: TGI [48]
14.6 µM: TGI [37]
46.9 µM: TGI [2]
> 25 µM: TGI [14]
35.8 µM: TGI [24]
33 µM: TGI [29]
24.2 µM: TGI [55]
> 48.3 µM: TGI [57]
> 100 µM: TGI [1] | TGI [5] | TGI [7] | TGI [9] | TGI [15] | TGI [30] | TGI [31] | TGI [33] | TGI [41] | TGI [45] | TGI [47] | TGI [51] | TGI [54] | TGI [56]
19.8 µM: TGI [21]
> 77.7 µM: TGI [49]
> 27.6 µM: TGI [26]
> 37 µM: TGI [43]
> 95.7 µM: TGI [36]
23 µM: TGI [19]
45.8 µM: TGI [20]
6.19 µM: TGI [11]
> 95.5 µM: TGI [46]
> 68 µM: TGI [13]
15 µM: TGI [10]
19.3 µM: TGI [4]
18.4 µM: TGI [3]
9.94 µM: TGI [25]
> 35.9 µM: TGI [52]
> 85.5 µM: TGI [6]
16.4 µM: TGI [28]
29.3 µM: TGI [27]
16 µM: TGI [32]
> 44.5 µM: TGI [34]
57.6 µM: TGI [50]
> 85.3 µM: TGI [12]
36.3 µM: TGI [22]
22 µM: TGI [35]
19.5 µM: TGI [8]
51.3 µM: TGI [23]
